Our source for the Kd and inhibition values is patent US20100222396A1 (Novartis AG, priority 2009, published 2010).

Where only a bound is given, the exact number is not on record here.

Experiment [1] addresses T1, human orexin 2 receptor (hOx2R) (Homo sapiens, UniProt O43614).
T1 construct: expressed in transfected cells
T1 sequence (O43614 1-444): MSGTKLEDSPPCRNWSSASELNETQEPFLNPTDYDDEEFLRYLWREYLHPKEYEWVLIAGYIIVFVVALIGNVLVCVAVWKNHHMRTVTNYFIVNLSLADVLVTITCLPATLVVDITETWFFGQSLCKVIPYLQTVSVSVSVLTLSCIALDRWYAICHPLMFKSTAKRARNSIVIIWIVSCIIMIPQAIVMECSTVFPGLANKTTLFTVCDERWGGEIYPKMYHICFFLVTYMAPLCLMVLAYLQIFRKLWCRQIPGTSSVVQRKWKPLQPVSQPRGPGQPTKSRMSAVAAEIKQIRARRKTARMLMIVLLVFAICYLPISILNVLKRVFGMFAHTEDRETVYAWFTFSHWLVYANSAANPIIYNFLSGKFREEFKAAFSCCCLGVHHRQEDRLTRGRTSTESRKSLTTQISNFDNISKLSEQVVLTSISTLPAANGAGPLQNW
As to the kind of experiment: Radioligand binding assay ([125I]orexin A competition), hOx2R. The following applies: CHO or HEK cell membranes, 1 h room temperature. As to the method: (§1) For crude cell membrane preparations, cells (CHO, Chinese hamster ovary or HEK, human embryonic kidney) expressing human orexin 1 or human orexin 2 receptors, were washed with HEPES (10 mM, pH 7.5), scraped off the culture plates with the same buffer, and centrifuged at 4° C. for 5 min at 2500×g. The cell pellet was either stored at −80° C. or used directly. Before the experiments, cell membranes were re-suspended in binding assay buffer (10 mM HEPES, 0.5% (w/v) bovine serum albumin, pH 7.5) by homogenisation with a Polytron homogeniser at 50 Hz for 20 s. Cell membranes were also used as made available by commercial providers.
(§2) In initial saturation experiments (to calculate Bmax), cell homogenates (150 μl) were incubated with 25-300 pM of the radioligand ([^125I]orexin A, 50 μl), 8 concentrations in triplicates in the presence or absence Orexin A (1 μM, 50 μl) to define non specific binding. Bound radioactivity was measured, and data were analysed with the program XLFIT or Graphpad Prism. Protein concentration was determined according to the Bradford/BioRad Protein Assay Kit.
(§3) In competition experiments, cell homogenates (150 μl) were incubated in assay buffer (10 mM HEPES, pH 7.5, 0.5% (w/v) bovine serum albumin, 5 mM MgCl2, […], and tween 0.05%) for 1 h at room temperature with about […] of the radioligand ([^125I]orexin A, 2100 Ci/mmole, 50 μl), and with various concentrations of compounds of the invention (50 μl) in triplicates; non-specific binding was determined in the presence of Orexin A (1 μM). Reactions were terminated by vacuum filtration, 3 washes of ice cold wash buffer (Tris-HCl pH 7.4/10 mM, with NaCl 154 mM). Competition data is expressed in Table 1 as Kd [μM].

Experiment [2] deals with T2, human orexin 1 receptor (hOx1R) (Homo sapiens, UniProt O43613).
T2 construct: expressed in transfected cells
T2 sequence (O43613 1-425): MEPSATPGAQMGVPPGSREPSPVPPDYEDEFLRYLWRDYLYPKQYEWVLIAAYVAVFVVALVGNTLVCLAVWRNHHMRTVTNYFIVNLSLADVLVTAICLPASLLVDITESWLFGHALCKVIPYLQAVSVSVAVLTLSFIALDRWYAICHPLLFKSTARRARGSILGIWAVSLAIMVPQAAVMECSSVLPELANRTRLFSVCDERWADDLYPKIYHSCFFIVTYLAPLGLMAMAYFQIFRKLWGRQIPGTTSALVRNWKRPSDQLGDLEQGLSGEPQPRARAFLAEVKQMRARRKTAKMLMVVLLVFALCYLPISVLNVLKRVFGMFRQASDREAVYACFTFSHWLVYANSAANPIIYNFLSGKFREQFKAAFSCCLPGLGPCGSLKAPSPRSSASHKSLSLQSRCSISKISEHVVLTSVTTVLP
As to the kind of experiment: Radioligand binding assay ([125I]orexin A competition), hOx1R. Particulars: CHO or HEK cell membranes, 1 h room temperature. As to the method: as §1, §2, §3

The target of experiment [3] is T1, human orexin 2 receptor (hOx2R). As to the kind of experiment: Calcium accumulation in cells (FLIPR), antagonism of orexin A, hOx2R. The class given is cell-based. Particulars: cells expressing human orexin 2 receptor; IC50 vs orexin A converted by Cheng and Prusoff correction. As to the method: (§4) Cells expressing human orexin 1 or human orexin 2 receptors, were seeded at 8,000 cells/well in 384 well black-walled clear bottom, poly-D-lysine coated plates. After 24 h, the medium was removed and cells were washed once with phosphate buffered saline and serum-deprived overnight in assay buffer (130 mM NaCl, 5.4 mM KCl, 1.8 mM CaCl2, 0.8 mM MgSO4, 0.9 mM NaH2PO4, 25 mM glucose, 20 mM HEPES, pH 7.4) containing bovine serum albumin (1% w/v).
(§5) On the day of the experiment, the cells seeded in black plates were treated with assay buffer containing the Ca^2+ sensitive fluorescent dye Fluo-4-AM (2 μM), and probenecid (0.1 mM). After 1 h plates were washed twice with, and resuspended in, assay buffer containing probenecid (0.1 mM) using a multi plate washer. The plates were placed into a FLIPR II (Fluorometric Imaging Plate Reader, Molecular Devices, Sunnyvale, Calif., USA) and baseline fluorescence (fluorescence light units, FLU) was measured (5 measurements, 2 S each; laser excitation 488 nm at 0.6-1 W, CCD camera exposure 0.4 s) before addition of buffer alone (basal) or containing test compounds (either compound of formula I alone, agonist alone or agonist in the presence of various concentrations of compounds of formula I). Fluorescence measurements were then continued every 1 S for 120 S followed by every 4 S for 240 S.
(§6) The measurements were typically made in two sequences:
(§7) Compounds of formula I were tested usually in a concentration range from 10^−9 M to 10^−5 M.
(§8) In the second round, performed one hour later (to allow for equilibration), Orexin A was tested either in the absence (calibration curves, Orexin A agonist controls) or in the presence of compounds of formula I to determine antagonism.

In experiment [4] the target is T2, human orexin 1 receptor (hOx1R). The experiment in a line: Calcium accumulation in cells (FLIPR), antagonism of orexin A, hOx1R. The class given is cell-based. The following applies: for Kd: cells expressing human orexin 1 receptor, IC50 vs orexin A converted by Cheng and Prusoff correction. How it is done: as §4, §5, §6, §7, §8

Usually Kd stands for the free concentration of one partner at which half of the binding sites on the other are occupied at equilibrium, for simple one-to-one binding. A word on the inhibition: it is the percentage by which the read-out fell short of the control.

For `CCN(C(=O)c1cc(C(F)(F)F)cc(C(F)(F)F)c1)[C@H](CCNC(=O)c1ccccn1)Cc1ccccc1` [Example 10, Pyridine-2-carboxylic acid {(S)-3-[(3,5-bis-trifluoromethyl-benzoyl)-ethyl-amino]-4-phenyl-butyl}-amide], the Kd in experiment [1] was determined as 0.059 µM; in experiment [2] it was 3.27 µM; in experiment [3], 0.027 µM; in experiment [4] it was 1.36 µM.

As for `CN(C(=O)c1cccc2[nH]ccc12)[C@H](CCNC(=O)c1ccccn1)Cc1ccccc1` [Example 11, 1H-Indole-4-carboxylic acid {(S)-1-benzyl-3-[(pyridine-2-carbonyl)-amino]-propyl}-methyl-amide], the Kd was found to be 0.052 µM in experiment [1], 0.021 µM in experiment [2], 0.016 µM in experiment [3] and 0.022 µM in experiment [4].

With `CN(C(=O)c1cc(C(F)(F)F)cc(C(F)(F)F)c1)[C@H](CCNC(=O)c1nc2ccccc2n1C)Cc1ccccc1` [Example 12, 1-Methyl-1H-benzoimidazole-2-carboxylic acid {(S)-3-[(3,5-bis-trifluoromethyl-benzoyl)-methyl-amino]-4-phenyl-butyl}-amide], the Kd in experiment [1] was found to be 0.098 µM; in experiment [2] it was 1.07 µM; in experiment [3] it was 0.04 µM; in experiment [4] it was 0.437 µM.

In the case of `CCCN(C(=O)c1ccc2c(c1)OCO2)[C@H](CCNC(=O)c1ccccn1)Cc1ccccc1` [Example 13, Pyridine-2-carboxylic acid {(S)-3-[(benzo[1,3]dioxole-5-carbonyl)-propyl-amino]-4-phenyl-butyl}-amide], the Kd came to 0.107 µM in experiment [1], 0.81 µM in experiment [2], 0.074 µM in experiment [3] and 2.21 µM in experiment [4].

With `CN(C(=O)c1ccc2c(c1)OCO2)[C@H](CCNC(=O)c1cc2ccccc2[nH]1)Cc1ccccc1` [Example 14, 1H-Indole-2-carboxylic acid {(S)-3-[(benzo[1,3]dioxole-5-carbonyl)-methyl-amino]-4-phenyl-butyl}-amide], the dissociation constant (Kd) in experiment [1] amounted to 0.521 µM; in experiment [2], 1.07 µM; in experiment [3], 0.106 µM; in experiment [4], 0.609 µM.

In the case of `CN(C(=O)c1cc(C(F)(F)F)cc(C(F)(F)F)c1)C(CCNC(=O)c1ccccn1)Cc1ccc(Cl)cc1` (centres unmarked) [Example 16, Pyridine-2-carboxylic acid [3-[(3,5-bis-trifluoromethyl-benzoyl)-methyl-amino]-4-(4-chloro-phenyl)-butyl]-amide], the Kd in experiment [1] is 0.074 µM; in experiment [2] it was more than 10 µM; in experiment [3] it was 0.044 µM; in experiment [4] it was 1.51 µM.

For `CN(C(=O)c1cc(C(F)(F)F)cc(C(F)(F)F)c1)C(CCNC(=O)c1ccccc1)Cc1ccccc1` (centres unmarked) [Example 17, N-(3-Benzoylamino-1-benzyl-propyl)-N-methyl-3,5-bis-trifluoromethyl-benzamide], the values for the Kd in experiment [1], in experiment [2] and in experiment [3] were 0.107 µM, 8.79 µM and 0.041 µM, respectively. Moreover, the inhibition at 10 µM in experiment [4] (measured at a concentration of 10 μM of compound (cells marked ^a)) came out at 36%.

As for `CN(C(=O)c1cccc2ccccc12)[C@H](CCNC(=O)c1nc2ccccc2n1C)Cc1ccccc1` [Example 18, 1-Methyl-1H-benzoimidazole-2-carboxylic acid {(S)-3-[methyl-(naphthalene-1-carbonyl)-amino]-4-phenyl-butyl}-amide], the Kd in experiment [1] turned out to be 0.129 µM; in experiment [2], 0.332 µM; in experiment [3], 0.014 µM; in experiment [4], 0.1 µM.

On to `CN(C(=O)c1cccc2c1OCO2)[C@H](CCNC(=O)c1nc2ccccc2n1C)Cc1ccccc1` [Example 19, 1-Methyl-1H-benzoimidazole-2-carboxylic acid {(8)-3-[(benzo[1,3]dioxole-4-carbonyl)-methyl-amino]-4-phenyl-butyl}-amide], for which the Kd in experiment [1] was determined as 0.131 µM; in experiment [2], 0.793 µM; in experiment [3], 0.114 µM; in experiment [4] it was 1.12 µM.

Take `CN(C(=O)c1ccc2occc2c1)[C@H](CCNC(=O)c1ccccn1)Cc1ccccc1` [Example 20, Pyridine-2-carboxylic acid {(8)-3-[(benzofuran-5-carbonyl)-methyl-amino]-4-phenyl-butyl}-amide]: the Kd in experiment [1] was found to be 0.168 µM; in experiment [2], 0.163 µM; in experiment [3] it was 0.123 µM; in experiment [4], 0.413 µM.

As for `CN(C(=O)c1ccc2ccccc2c1)[C@H](CCNC(=O)c1ccccn1)Cc1ccccc1` [Example 21, Pyridine-2-carboxylic acid {(S)-3-[methyl-(naphthalene-2-carbonyl)-amino]-4-phenyl-butyl}-amide], the Kd in experiment [1] was found to be 0.203 µM; in experiment [2], 0.062 µM; in experiment [3], 0.174 µM; in experiment [4], 0.07 µM.

With `CCCN(C(=O)c1cc(C(F)(F)F)cc(C(F)(F)F)c1)[C@H](CCNC(=O)c1ccccn1)Cc1ccccc1` [Example 22, Pyridine-2-carboxylic acid {(S)-3-[(3,5-bis-trifluoromethyl-benzoyl)-propyl-amino]-4-phenyl-butyl}-amide], the Kd in experiment [1] is 0.214 µM; in experiment [2], more than 10 µM; in experiment [3] it was 0.105 µM; in experiment [4], 1.57 µM.

Turning to `CN(C(=O)c1ccc2c(c1)CCN2)[C@H](CCNC(=O)c1ccccn1)Cc1ccccc1` [Example 23, 2,3-Dihydro-1H-indole-5-carboxylic acid {(S)-1-benzyl-3-[(pyridine-2-carbonyl)-amino]-propyl}-methyl-amide], the Kd stood at 0.265 µM in experiment [1], 0.052 µM in experiment [2], 0.419 µM in experiment [3] and 0.152 µM in experiment [4].

As to `CN(C(=O)c1cccc2ccccc12)[C@H](CCNC(=O)c1nc2ccccc2n1C)Cc1ccc(F)cc1` [Example 24, 1-Methyl-1H-benzoimidazole-2-carboxylic acid {(S)-4-(4-fluoro-phenyl)-3-[methyl-(naphthalene-1-carbonyl)-amino]-butyl}-amide], the Kd turned out to be 0.273 µM in experiment [1], 1.39 µM in experiment [2], 0.005 µM in experiment [3] and 0.124 µM in experiment [4].
